Assay results: patent US20100286128A1 (priority 2007, published 2010)
Counter-ions that a name gives are not always drawn.

Target: α7-subtype of nicotinic receptors (Rattus norvegicus, UniProt Q05941)
Test: biochemical
Format: binding

Sequence of α7-subtype of nicotinic receptors (Q05941 23-502): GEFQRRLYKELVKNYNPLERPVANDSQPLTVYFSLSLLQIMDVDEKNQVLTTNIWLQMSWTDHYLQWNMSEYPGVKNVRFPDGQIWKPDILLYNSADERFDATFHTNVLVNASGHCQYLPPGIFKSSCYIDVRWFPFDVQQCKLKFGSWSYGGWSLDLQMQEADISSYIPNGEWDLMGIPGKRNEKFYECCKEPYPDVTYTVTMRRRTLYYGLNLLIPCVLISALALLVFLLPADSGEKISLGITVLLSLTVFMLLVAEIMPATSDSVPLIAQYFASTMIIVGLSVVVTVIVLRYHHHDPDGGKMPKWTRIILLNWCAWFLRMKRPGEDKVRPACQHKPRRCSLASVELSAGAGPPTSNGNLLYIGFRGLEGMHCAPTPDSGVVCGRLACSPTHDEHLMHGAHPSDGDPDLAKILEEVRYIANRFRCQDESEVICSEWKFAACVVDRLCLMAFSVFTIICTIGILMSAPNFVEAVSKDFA

c1csc(-c2cnc(N3CCN4CCC3CC4)nc2)c1 [Compound A1, 4-(5-Thiophen-2-yl-pyrimidin-2-yl)-1,4-diaza-bicyclo[3.2.2]nonane hydrochloric acid salt]
IC50: < 100 nM
